Test results taken from PMC5562448 (Chembiochem : a European journal of chemical biology, 2017).

Columns and labels:
HSPA1A = HSPA1A (Homo sapiens, UniProt P0DMV8); test: isothermal titration calorimetry; assay type: binding; conditions: n=0.9
HSPA8 = HSPA8 (Homo sapiens, UniProt P11142); test: isothermal titration calorimetry; assay type: binding; conditions: n=1.1
Chain of HSPA8 (P11142 2-646): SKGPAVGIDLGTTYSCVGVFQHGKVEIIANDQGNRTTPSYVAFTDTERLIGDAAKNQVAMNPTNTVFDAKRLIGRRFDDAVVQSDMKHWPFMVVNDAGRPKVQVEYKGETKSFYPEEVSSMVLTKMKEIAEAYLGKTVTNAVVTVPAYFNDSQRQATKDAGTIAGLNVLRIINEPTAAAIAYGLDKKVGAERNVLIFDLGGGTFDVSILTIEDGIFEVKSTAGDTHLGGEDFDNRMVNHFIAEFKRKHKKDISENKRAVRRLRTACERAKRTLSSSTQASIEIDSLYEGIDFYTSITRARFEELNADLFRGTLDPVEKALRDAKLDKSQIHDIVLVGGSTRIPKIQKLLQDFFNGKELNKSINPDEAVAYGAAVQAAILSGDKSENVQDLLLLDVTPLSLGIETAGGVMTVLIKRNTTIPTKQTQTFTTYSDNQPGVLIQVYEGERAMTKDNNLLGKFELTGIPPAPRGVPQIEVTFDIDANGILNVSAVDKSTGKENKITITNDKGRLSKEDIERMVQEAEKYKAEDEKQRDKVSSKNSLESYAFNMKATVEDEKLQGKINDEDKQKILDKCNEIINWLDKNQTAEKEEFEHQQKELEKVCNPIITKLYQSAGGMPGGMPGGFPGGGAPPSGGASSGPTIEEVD

Chain of HSPA1A (P0DMV8 2-641): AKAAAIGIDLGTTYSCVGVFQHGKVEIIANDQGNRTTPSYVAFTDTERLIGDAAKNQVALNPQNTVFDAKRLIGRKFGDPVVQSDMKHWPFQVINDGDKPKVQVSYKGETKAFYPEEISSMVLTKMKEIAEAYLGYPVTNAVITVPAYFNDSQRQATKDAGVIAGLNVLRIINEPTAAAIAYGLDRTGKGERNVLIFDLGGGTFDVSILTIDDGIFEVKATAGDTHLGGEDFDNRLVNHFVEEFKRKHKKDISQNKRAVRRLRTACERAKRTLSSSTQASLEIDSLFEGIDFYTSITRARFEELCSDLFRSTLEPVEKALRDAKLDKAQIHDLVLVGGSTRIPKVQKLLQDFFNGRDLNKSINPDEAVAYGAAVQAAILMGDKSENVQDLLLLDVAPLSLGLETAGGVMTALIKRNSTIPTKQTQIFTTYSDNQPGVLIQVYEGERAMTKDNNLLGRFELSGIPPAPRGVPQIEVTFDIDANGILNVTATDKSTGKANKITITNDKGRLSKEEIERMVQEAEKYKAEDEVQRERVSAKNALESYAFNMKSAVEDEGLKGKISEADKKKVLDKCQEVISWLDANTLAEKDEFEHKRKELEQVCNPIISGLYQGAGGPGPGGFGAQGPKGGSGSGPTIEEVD

How did the Kd (HSPA1A) turn out when `C[C@@H]1[C@]2(O[C@H]3C=C4[C@@H]5CC[C@H]6Cc7nc8c(nc7C[C@]6(C)[C@H]5C[C@@H](O)[C@]4(C)[C@]31O)C[C@@H]1CC[C@H]3C4=C[C@@H]5O[C@]6(CCC(C)(C)O6)[C@@H](C)[C@@H]5[C@@]4(C)[C@H](O)C[C@@H]3[C@@]1(C)C8)O[C@](C)(CO)C[C@H]2O` [compound 3, ritterostatin GN1N] was run?
Its Kd is 0.625 µM.

What about the Kd (HSPA8) of the same molecule?
Its Kd is 1.63 µM.
